Results from PMC5773217, “Xylose donor transport is critical for fungal virulence” (PLoS Pathogens, 2018).

What was measured:
Gmt1 = molecular target: T1, Gmt1 (Cryptococcus neoformans, UniProt J9VRU7); assay: uptake into reconstituted proteoliposomes, LC-MS/MS; format: biochemical; details: 37°C
T1 construct: gene CNAG_05817; full coding region, C-terminal His/V5 tag kept, pYES-DEST52 in S. cerevisiae INVSc1, membrane protein reconstituted into proteoliposomes

Gmt2 = molecular target: T2, Gmt2 (Cryptococcus neoformans, UniProt J9VY61); assay: as above; format: biochemical; details: 37°C
T2 construct: gene CNAG_03426; full coding region, C-terminal His/V5 tag kept, pYES-DEST52 in S. cerevisiae INVSc1, membrane protein reconstituted into proteoliposomes

[1] = test system: O=c1ccn([C@@H]2O[C@H](COP(=O)(O)OP(=O)(O)O[C@H]3OC[C@@H](O)[C@H](O)[C@H]3O)[C@@H](O)[C@H]2O)c(=O)[nH]1; assay: cells, lysate or membranes; details: antiport, preloaded with 10 mM UMP; 2 min; UDP-Xyl 0-100 μM
[2] = antiport, preloaded with 30 mM GMP, 16-substrate mixture, 50 μM each, 10 min
[3] = antiport counter-substrate, 30 mM GMP preloaded, GDP-Man outside

T1 sequence (J9VRU7 entry or part of it): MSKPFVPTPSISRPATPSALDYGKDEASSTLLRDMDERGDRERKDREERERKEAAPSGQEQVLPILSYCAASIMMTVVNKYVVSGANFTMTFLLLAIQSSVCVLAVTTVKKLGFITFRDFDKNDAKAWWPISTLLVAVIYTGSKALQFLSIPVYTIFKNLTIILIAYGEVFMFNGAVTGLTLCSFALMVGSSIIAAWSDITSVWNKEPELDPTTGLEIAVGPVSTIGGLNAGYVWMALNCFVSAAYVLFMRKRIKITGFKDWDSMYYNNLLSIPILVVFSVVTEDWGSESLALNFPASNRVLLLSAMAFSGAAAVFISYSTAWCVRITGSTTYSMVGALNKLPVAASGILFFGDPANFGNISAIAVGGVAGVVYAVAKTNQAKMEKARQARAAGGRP
T2 sequence (J9VY61 entry or part of it): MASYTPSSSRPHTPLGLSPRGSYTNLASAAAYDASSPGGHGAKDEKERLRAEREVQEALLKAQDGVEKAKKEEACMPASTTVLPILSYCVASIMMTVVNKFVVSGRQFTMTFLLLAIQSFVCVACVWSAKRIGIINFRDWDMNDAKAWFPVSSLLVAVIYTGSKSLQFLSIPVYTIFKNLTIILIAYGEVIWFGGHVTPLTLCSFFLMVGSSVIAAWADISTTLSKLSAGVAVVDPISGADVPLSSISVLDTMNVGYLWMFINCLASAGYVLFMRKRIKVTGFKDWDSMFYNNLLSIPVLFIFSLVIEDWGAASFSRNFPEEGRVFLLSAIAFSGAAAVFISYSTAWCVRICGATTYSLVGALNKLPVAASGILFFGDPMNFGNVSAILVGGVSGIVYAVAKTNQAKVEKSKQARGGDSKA

Molecule | Km [1] [µM] | kcat [1] [s⁻¹] | further results
Nc1nc2c(ncn2[C@@H]2O[C@H](COP(=O)(O)OP(=O)(O)O[C@H]3O[C@H](CO)[C@@H](O)[C@H](O)[C@@H]3O)[C@@H](O)[C@H]2O)c(=O)[nH]1 [GDP-Man] | – | – | uptake into reconstituted proteoliposomes, LC-MS/MS (Gmt1; [2]): Both proteins transported GDP-Man and smaller amounts of other GDP-sugars in exchange for GMP; uptake into reconstituted proteoliposomes, LC-MS/MS (Gmt2; [2]): Both proteins transported GDP-Man and smaller amounts of other GDP-sugars in exchange for GMP
Nc1nc2c(ncn2[C@@H]2O[C@H](COP(=O)(O)O)[C@@H](O)[C@H]2O)c(=O)[nH]1 [GMP] | – | – | uptake into reconstituted proteoliposomes, LC-MS/MS (Gmt1; [3]): Both proteins transported GDP-Man and smaller amounts of other GDP-sugars in exchange for GMP; uptake into reconstituted proteoliposomes, LC-MS/MS (Gmt2; [3]): Both proteins transported GDP-Man and smaller amounts of other GDP-sugars in exchange for GMP
Uxt1 (Cryptococcus neoformans H99) | 1.0 ± 0.2 | 0.9 | –
Uxt2 (Cryptococcus neoformans H99) | 2.2 ± 0.5 | 0.4 | –
